For one compound, melting point results are on record in patent US8076343B2, “Benzimidazoles useful as inhibitors of protein kinases” (Vertex Pharmaceuticals Incorporated, priority 2005, dated 2011).

The structures appear in SMILES notation.

As for `Nc1nc2ccccc2n1-c1cc(NC2CCCNC2)ncn1` (stereo not shown) [Compound 3], the melting point – broadly, the temperature of the solid-liquid transition – was 87 to 88 °C.
